Measurements as given in patent US20110054188A1, “NEAR INFRARED FLUORESCENT IMAGING AGENT” (FUJIFILM Corporation, priority 2009, published 2011).

Key:
Type in all cases: in vitro ADME
Conditions in all cases: 5 μM, equilibrium dialysis 4 hours at 37° C.
[1] = system: plasma protein; assay: Plasma protein binding rate test by equilibrium dialysis method, mouse plasma
Protocol: (§1) Plasma protein binding rates of the compounds were determined by equilibrium dialysis method (W. Lindner et al, J. Chromatography, 1996, 677, 1-28). Each test compound was dissolved in distilled water at concentration of 200 μM. The solution was added to the plasma of mouse, dog, rabbit, monkey and human respectively, at the amount to obtain the final concentration of 5 μM. This solution (300 μL) and PBS solution (500 μL) were added to each dialysis cell of equilibrium dialysis unit RED device (Pierce Biotechnology), and the cells were shaken at 100 rpm at 37° C. After 4 hours, samples of plasma and the buffer were collected, and the fluorescence intensity of each was measured by EnVision ([…]). After the concentrations were calculated from a calibration curve, the concentrations (%) of free test compound in plasma were determined.

[2] = system: plasma protein; assay: Plasma protein binding rate test by equilibrium dialysis method, dog plasma
Protocol: as §1

[3] = system: plasma protein; assay: Plasma protein binding rate test by equilibrium dialysis method, rabbit plasma
Protocol: as §1

[4] = system: plasma protein; assay: Plasma protein binding rate test by equilibrium dialysis method, monkey plasma
Protocol: as §1

[5] = system: plasma protein; assay: Plasma protein binding rate test by equilibrium dialysis method, human plasma
Protocol: as §1

Plasma protein binding rate (%) mouse [1] [%] | Plasma protein binding rate (%) dog [2] [%] | Plasma protein binding rate (%) rabbit [3] [%] | Plasma protein binding rate (%) monkey [4] [%] | Plasma protein binding rate (%) human [5] [%] | SMILES
53 | 52 |  |  |  | CC1(C)C(/C=C/C=C/C=C/C=C2/N(CCCP(=O)(O)O)c3ccc(S(=O)(=O)O)cc3C2(C)C)=[N+](CCCP(=O)(O)O)c2ccc(S(=O)(=O)O)cc21.[Na+].[Na+].[Na+].[Na+].[Na+].[Na+] [Compound 10]
 | 71 | 87 | 95 | 94 | CC1(C)C(/C=C/C=C/C=C/C=C2/N(CCS(=O)(=O)[O-])c3ccc(P(=O)([O-])[O-])cc3C2(C)C)=[N+](CCS(=O)(=O)[O-])c2ccc(P(=O)([O-])[O-])cc21.[Na+].[Na+].[Na+].[Na+].[Na+] [Compound 14]
 |  | 87 | 90 | 89 | CC1(C)C(/C=C/C=C/C=C/C=C2/N(CCC(=O)[O-])c3ccc(P(=O)([O-])[O-])cc3C2(C)C)=[N+](CCC(=O)[O-])c2ccc(P(=O)([O-])[O-])cc21.[Na+].[Na+].[Na+].[Na+].[Na+] [Compound 13]
 |  | 88 | 93 | 92 | CC(/C=C/C=C1\N(CCS(=O)(=O)[O-])c2ccc(S(=O)(=O)[O-])cc2C1(C)C)=C\C=C\C1=[N+](CCS(=O)(=O)[O-])c2ccc(S(=O)(=O)[O-])cc2C1(C)C.[Na+].[Na+].[Na+] [Compound B, reference compound]
46 | 50 | 61 | 67 | 56 | CC1(C)C(=CC=CC=CC=CC2=[N+](CCP(=O)([O-])[O-])c3ccc(S(=O)(=O)[O-])cc3C2(C)C)N(CCP(=O)([O-])[O-])c2ccc(S(=O)(=O)[O-])cc21.[Na+].[Na+].[Na+].[Na+].[Na+] [Compound 9]
63 | 59 | 79 | 91 | 93 | CC(/C=C/C=C1\N(CCC(=O)[O-])c2ccc(P(=O)([O-])[O-])cc2C1(C)C)=C\C=C\C1=[N+](CCC(=O)[O-])c2ccc(P(=O)([O-])[O-])cc2C1(C)C.[Na+].[Na+].[Na+].[Na+].[Na+] [Compound 17]
59 |  | 82 | 95 | 96 | CC(/C=C/C=C1\N(CCS(=O)(=O)[O-])c2ccc(P(=O)([O-])[O-])cc2C1(C)C)=C\C=C\C1=[N+](CCS(=O)(=O)[O-])c2ccc(P(=O)([O-])[O-])cc2C1(C)C.[Na+].[Na+].[Na+].[Na+].[Na+] [Compound 18]
91 | 83 | 98 | 97 | 98 | CC1(C)C(/C=C/C=C(/C=C/C=C2\N(CCP(=O)([O-])[O-])c3ccc(S(=O)(=O)[O-])cc3C2(C)C)c2ccccc2)=[N+](CCP(=O)([O-])[O-])c2ccc(S(=O)(=O)[O-])cc21.[Na+].[Na+].[Na+].[Na+].[Na+] [Compound 11]
77 | 77 | 95 | 92 | 95 | CC1(C)C(/C=C/C=C(/C=C/C=C2\N(CCC(=O)[O-])c3ccc(P(=O)([O-])[O-])cc3C2(C)C)c2ccccc2)=[N+](CCC(=O)[O-])c2ccc(P(=O)([O-])[O-])cc21.[Na+].[Na+].[Na+].[Na+].[Na+] [Compound 16]
27 | 29 | 79 | 87 | 82 | CC1(C)C(/C=C/C=C/C=C/C=C2\N(CCS(=O)(=O)[O-])c3ccc(S(=O)(=O)[O-])cc3C2(C)C)=[N+](CCS(=O)(=O)[O-])c2ccc(S(=O)(=O)[O-])cc21.[Na+].[Na+].[Na+] [Compound A, reference compound]
91 | 82 | 95 | 93 | 95 | CC1(C)C(/C=C/C=C(/C=C/C=C2\N(CCCP(=O)([O-])[O-])c3ccc(S(=O)(=O)[O-])cc3C2(C)C)c2ccccc2)=[N+](CCCP(=O)([O-])[O-])c2ccc(S(=O)(=O)[O-])cc21.[Na+].[Na+].[Na+].[Na+].[Na+] [Compound 12]
57 | 50 | 67 | 71 | 74 | CC1(C)C(/C=C/C=C/C=C/C=C2\N(CC(=O)O)c3ccc(S(=O)(=O)[O-])cc3C2(C)C)=[N+](CC(=O)O)c2ccc(S(=O)(=O)[O-])cc21.[Na+] [Compound 4]
 |  | 94 | 96 | 93 | CC1(C)C(/C=C/C=C(/C=C/C=C2\N(CCS(=O)(=O)[O-])c3ccc(P(=O)([O-])[O-])cc3C2(C)C)c2ccccc2)=[N+](CCS(=O)(=O)[O-])c2ccc(P(=O)([O-])[O-])cc21.[Na+].[Na+].[Na+].[Na+].[Na+] [Compound 15]
 | 59 | 88 | 79 | 88 | CC1(C)C(/C=C/C=C/C=C/C=C2/N(CCCCC(=O)O)c3ccc(S(=O)(=O)O)cc3C2(C)C)=[N+](CCCCC(=O)O)c2ccc(S(=O)(=O)O)cc21.[Na+].[Na+] [Compound 6]
